# From patent US10143666B2, “Small molecule inhibitors targeting CAG-repeat RNA toxicity in polyglutamine diseases” (The Chinese University of Hong Kong, priority 2015, dated 2018)
# Several values for one entry are separate records, joined by “and”; a condition that tells them apart may be missing. Equal entries are not always repeated. Where two headings read alike, the source gives them in different places.
# What was measured:
# CTG480 fly = test: Neurodegeneration in CTG480 fly (Myotonic dystrophy 1 model); assay type: in vivo, Drosophila
# Experimental: Other disease fly models, including α-synuclein (Parkinson's disease)^13, CTG480 (Myotonic dystrophy 1)^14 and CGG90 (Fragile X syndrome)^15 were employed to address the specificity of DB213 on trinucleotide repeat expansion RNA toxicity.
# Flies were raised at 21.5° C. on cornmeal medium supplemented with dry yeast. Pseudopupil assay was performed on 12 day-old adult flies as mentioned previously^18. Images were captured by SPOT Insight CCD camera controlled by the SPOT Advanced software (Diagnostic instruments Inc.). External eye assay was performed on 12 day-old adult flies by Olympus SZX-12 stereomicroscope. Eye images were captured using a SPOT Insight CCD camera (Diagnostic instruments Inc.).
# [1] = mouse, in vivo, iv, 50 mg/kg
# Experimental: (§1) Body temperature was measured from rectum on day 1 (baseline), and on days 3, 5 and 7.
# (§2) Body temperature was measured from rectum on day 1 (baseline) and on days 3, 5 and 7.
# R6/2 Huntington's mice = test: Neurological index scoring in R6/2 mice; assay type: in vivo
# Experimental: The body weights were measured daily.
# The following 30 behaviors were evaluated: Head Tremor, Head Twitch, Head Bobbing, Head Searching, Body Tremor, Body Twitch, Tail Tremor, Tail Twitch, Straub Tail, Piloerection, Shallow Respiration, Flattened Body Posture, Swollen Face, Ptosis, Irritability, Seizure, Urine Staining, Lacrimation, Salivation, Limb Splay, Catalepsy, Abnormal Gait, Tip Toe Walking, Slow Careful Movements, Excessive Grooming, Circling, Sniffing, and Chewing. In addition to the above occurrences the chronic observational phase included excessive locomotor activity, loss of startle response, loss of righting reflex, dehydration and tail pinch. The assessment was performed as follows: A score of 0 was assigned for normal features (such as locomotor activity) or for the absence of abnormal features (such as absence of piloerection); a score of 1 was given when mild abnormalities were observed; and a score of 2-3 was given when severe abnormalities were observed. All of these features were scored from simple observation of the mice in their cage, except for the startle, tail pinch and righting reflexes which were direct manipulations. To test the startle reflex, a small hand clicker was used to generate a loud popping noise and the following behaviors were identified during this process: jumping, freezing, and rapid eye blinks. For the righting reflex, each mouse was then removed from its home cage and placed on its back allowing the mouse to correct itself. Tail pinch was tested by gently squeezing the end of the tail with forceps.
# [2] = Body temperature (rectum) in R6/2 mice; settings: for Body temperature vs vehicle: day 7, p<0.05
# Experimental: as §1, §2
structure (smiles),measurement,setting,value
CN(C)CCCNC(=N)c1ccc(C(=N)NCCCN(C)C)cc1.Cl.Cl.Cl.Cl [DB213],Body weight (group Mean),"Body weight in R6/2 mice; i.v. twice-a-week 12.5 mg/kg, Day 4",22 g
same,Body weight (group Mean),"Body weight in R6/2 mice; i.v. twice-a-week 12.5 mg/kg, Day 6 (not measured, replaced by mean of days 5 and 7)",22.4 g
same,Body weight (group Mean),"Body weight in R6/2 mice; i.v. twice-a-week 12.5 mg/kg, Day 7",22.6 g
same,Body weight (group Mean),"Body weight in R6/2 mice; i.v. twice-a-week 25 mg/kg, Day 2",21 g
same,Body weight (group Mean),"Body weight in R6/2 mice; i.v. twice-a-week 25 mg/kg, Day 3",21.6 g
same,Body weight (group Mean),"Body weight in R6/2 mice; i.v. twice-a-week 25 mg/kg, Day 4",21.6 g
same,Body weight (group Mean),"Body weight in R6/2 mice; i.v. twice-a-week 25 mg/kg, Day 7",22 g
same,"Body weight, differences between treatment groups","Body weight in R6/2 mice; i.v. twice-a-week 12.5 and 25 mg/kg, any time point, p>0.05",no differences in body weight
same,Suppression of neurodegeneration,CTG480 fly,did not suppress the neurodegeneration
same,Body temperature (group Mean),[1],37.5
same,Mean neurological index score of all parameters vs vehicle,"R6/2 Huntington's mice; i.n. 300 mg/kg, day 3, p<0.05",significantly higher mean score
same,"Neurological index score, differences between treatment groups",R6/2 Huntington's mice; i.v. dosing,no differences in neurological index score
same,Neurological index score,R6/2 Huntington's mice; intranasal dosing,increased neurological index score
same,Body temperature vs vehicle,[2]; i.n. 100 mg/kg,increased
same,Body temperature vs vehicle,[2]; i.n. 300 mg/kg,increased
same,Body temperature (group Mean),"[2]; i.n. daily 50 mg/kg, Day 1 (baseline)",36.9
same,Body temperature (individual mouse),"[2]; i.n. daily 50 mg/kg, Day 1 (baseline), listed as Compound-5, 50 mg/kg",37 and 35.9 and 36.4
same,Body temperature (group Mean),"[2]; i.n. daily 50 mg/kg, Day 3",36.9
same,Body temperature (individual mouse),"[2]; i.n. daily 50 mg/kg, Day 3, listed as Compound-5, 50 mg/kg",36.9 and 35.8 and 37
same,Body temperature (individual mouse),"[2]; i.n. daily 50 mg/kg, Day 5, listed as Compound-5, 50 mg/kg",37.9
same,Body temperature (individual mouse),"[2]; i.n. daily 50 mg/kg, Day 7, listed as Compound-5, 50 mg/kg",37 and 38.1
same,Body temperature (group Mean),"[2]; i.n. daily 100 mg/kg, Day 1 (baseline)",37.0
same,Body temperature (individual mouse),"[2]; i.n. daily 100 mg/kg, Day 3, listed as Compound-5, 100 mg/kg",37.7 and 37 and 36.9
same,Body temperature (individual mouse),"[2]; i.n. daily 100 mg/kg, Day 5, listed as Compound-5, 100 mg/kg",37.7 (2×) and 36.6 and 37.9 and 36.9
same,Body temperature (individual mouse),"[2]; i.n. daily 100 mg/kg, Day 7, listed as Compound-5, 100 mg/kg",38.1 and 37.7 and 36.9
same,Body temperature (individual mouse),"[2]; i.n. daily 200 mg/kg, Day 1 (baseline), listed as Compound-5, 200 mg/kg",36.9 (2×) and 37.7
same,Body temperature (individual mouse),"[2]; i.n. daily 200 mg/kg, Day 3, listed as Compound-5, 200 mg/kg",36.6
same,Body temperature (individual mouse),"[2]; i.n. daily 200 mg/kg, Day 5, listed as Compound-5, 200 mg/kg",38
same,Body temperature (individual mouse),"[2]; i.n. daily 300 mg/kg, Day 5, listed as Compound-5, 300 mg/kg",38
same,Body temperature (individual mouse),"[2]; i.n. daily 300 mg/kg, Day 7, listed as Compound-5, 300 mg/kg",37.9
same,Body temperature (group Mean),"[2]; i.v. 50 mg/kg (treatment discontinued), Day 3, n 1",37.7
same,Body temperature (group Mean),"[2]; i.v. 50 mg/kg (treatment discontinued), Day 5, n 1",38.0
same,Body temperature (group Mean),"[2]; i.v. 50 mg/kg (treatment discontinued), Day 7, n 1",37.0
same,"Body temperature, differences between treatment groups","[2]; i.v. dosing, p>0.05",no significant differences
same,Body temperature (group Mean),"[2]; i.v. twice-a-week 12.5 mg/kg, Day 1 (baseline)",36.7
same,Body temperature (individual mouse),"[2]; i.v. twice-a-week 12.5 mg/kg, Day 1 (baseline), listed as Compound-5",35.7 and 37
same,Body temperature (individual mouse),"[2]; i.v. twice-a-week 12.5 mg/kg, Day 3, listed as Compound-5",38
same,Body temperature (group Mean),"[2]; i.v. twice-a-week 12.5 mg/kg, Day 5",37.0
same,Body temperature (individual mouse),"[2]; i.v. twice-a-week 12.5 mg/kg, Day 5, listed as Compound-5",37
same,Body temperature (individual mouse),"[2]; i.v. twice-a-week 12.5 mg/kg, Day 7, listed as Compound-5",37 and 38.6
same,Body temperature (group Mean),"[2]; i.v. twice-a-week 25 mg/kg, Day 1 (baseline)",37.0
same,Body temperature (individual mouse),"[2]; i.v. twice-a-week 25 mg/kg, Day 1 (baseline), listed as Compound-5",37.9 and 36.6 and 36.4 and 38.5
same,Body temperature (individual mouse),"[2]; i.v. twice-a-week 25 mg/kg, Day 3, listed as Compound-5",36.9
same,Body temperature (individual mouse),"[2]; i.v. twice-a-week 25 mg/kg, Day 5, listed as Compound-5",37.9
same,Body temperature,[2]; intranasal dosing,increased
